Measurements from patent US10584154B2, “Vesicles comprising lectins expressed on the surface and methods of use thereof to deliver an agent to autophagic and apoptotic cells” (TZU CHI UNIVERSITY, priority 2017, dated 2020).

Assays:
[1] = test system: apoptotic cells (mouse B16-F10 cells suspended for 4 hours); test: Blocking of liposomes targeting to apoptotic cells (flow cytometry); type: cell-based; details: M6PR+P-selectin, M6PR+PSGL-1 groups
Protocol: (§1) The mouse B16-F10 cells were suspended for 4 hours to induce autophagy and apoptosis. The autophagy and apoptosis cell were labeled with green fluorescent dyes (GFDs), using Cyto-ID autophagy detection kit (Enzo Life Sciences) (see FIG. 1 and FIG. 3) and CaspGLOW™ Red Active Caspase-3 Staining Kit (BioVision) (see FIG. 2 and FIG. 4) kits, respectively. The autophagy and apoptosis cell containing populations were engaged with various protein conjugated liposomes, which were labeled with fluorescent dye calcein-red (CR). The percentage of B16-F10-liposome engaged populations (GFD and CR double positive populations) were determined using flow cytometry. The levels of liposomes and fluorescent beads engaged with none conjugated cells (the “unconjugated” groups) were normalized to 100% (see FIG. 1 and FIG. 2).
(§2) The mouse B16-F10 cells were suspended for 4 hours and then treated with blocking antibody or soluble M6PR recombinant protein plus additional M6PR+P-selectin-conjugated liposomes. The autophagy and apoptosis cell were labeled with green fluorescent dyes (GFDs), using Cyto-ID autophagy detection kit (Enzo Life Sciences) and CaspGLOW™ Red Active Caspase-3 Staining Kit (BioVision) kits, respectively. […] The percentage of B16-F10-liposome engaged populations (GFD and CR double positive populations) were determined using flow cytometry. […]

[2] = test system: autophagy cells (mouse B16-F10 cells suspended for 4 hours); test: Blocking of liposomes targeting to autophagy cells (flow cytometry); type: cell-based; details: M6PR+P-selectin, M6PR+PSGL-1 groups
Protocol: as §1, §2

## sialyl-lewis x oligosaccharide
[1]
  antidote: blocking of P-selectin, E-selectin and PSGL-1-conjugated liposomes targeting to apoptotic cells: able to serve as the antidotes
[2]
  antidote: blocking of P-selectin, E-selectin and PSGL-1-conjugated liposomes targeting to autophagy cells: able to serve as the antidotes
